Experimental data taken from patent publication US5328985A, “Recombinant streptavidin-protein chimeras useful for conjugation of molecules in the immune system” (priority 1991, dated 1994).

Test system: recombinant streptavidin-Protein A chimeric protein encoded in pTSAPA-2 (streptavidin residues 16-133 fused to Protein A regions E and D; 31.4 kDa subunit …)
Assay: Determination of biotin-binding ability by gel filtration with D-[carbonyl-14C]biotin
Settings: purified chimeric protein, subunit 31.4 kDa; room temperature, TBS; Sephadex G-25 gel filtration
Method: Biotin-binding ability was determined by gel filtration according to Methods Enzymol., 18A:424 (1970) using a Sephadex G-25 desalting column (PD-10; 0.76×5.0 cm, Pharmacia-LKB) and D-[carbonyl-^14 C]biotin (52 mCi/mmol, Amersham). The binding of the chimeric protein to biotin was done at room temperature in TBS containing 0.02% NAN3, and the same solution was used as the eluent.

O=C(O)CCCC[C@@H]1SC[C@@H]2NC(=O)N[C@@H]21 [biotin, D-biotin]
biotin-binding ability: molecules of biotin bound per subunit: more than 0.96 molecules of biotin per subunit
